In paper PMC9097129, “C-terminal mini-PEGylation of a marine peptide N6 had potent antibacterial and anti-inflammatory properties against Escherichia coli and Salmonella strains in vitro and in vivo” (BMC Microbiology, 2022):
In brackets after ≈: the same amount, converted by molar mass. Bridge positions count the residues as written; N and C are the ends. Square brackets hold non-standard residues; d marks the D form. Peptide text beside a SMILES is read from it. AEEA = NCCOCCOCC(=O)O

How the values were obtained:
E. coli ATCCO157 = assay type: cell-based, Escherichia coli; details: MHB, 1 × 10^5 CFU/mL, 37 °C, 18 – 24 h, triplicate
Procedure: (§1) The MIC was determined according to the method developed by Clinical and Laboratory Standards Institute (CLSI). The strains were cultured in Mueller–Hinton Broth medium (MHB) at the appropriate temperature until mid-log phase. A series of two-fold dilutions of N6 and PEGylated N6 (10 μL) and bacterial suspension (1 × 10^5 CFU/mL, 90 μL) were added into 96-well plates and incubated at 37 °C for 18 – 24 h. PBS and MHB were used as the negative and blank control, respectively. All assays were conducted in triplicate.

E. coli CVCC1515 = assay type: cell-based, Escherichia coli
Procedure: as §1

E. coli CVCC195 = assay type: cell-based, Escherichia coli
Procedure: as §1

E. coli CVCC25922 = assay type: cell-based, Escherichia coli
Procedure: as §1

P. aeruginosa CICC21630 = assay type: cell-based
Procedure: as §1

S. aureus ATCC25923 = assay type: cell-based
Procedure: as §1

S. aureus ATCC43300 = assay type: cell-based
Procedure: as §1

S. aureus ATCC546 = assay type: cell-based
Procedure: as §1

S. enteritidis CVCC3377 = assay type: cell-based
Procedure: as §1

S. hyicus NCTC10350 = assay type: cell-based
Procedure: as §1

S. typhimurium ATCC14028 = assay type: cell-based
Procedure: as §1

S. pullorum CVCC1789 = assay type: cell-based, Salmonella pullorum
Procedure: as §1

S. pullorum CVCC1802 = assay type: cell-based, Salmonella pullorum
Procedure: as §1

S. pullorum CVCC533 = assay type: cell-based, Salmonella pullorum
Procedure: as §1

C. albicans CMCC98001 = assay type: cell-based, Candida albicans
Procedure: as §1

Work on `CC(C)[C@@H]1NC(=O)CNC(=O)[C@H](CC(N)=O)NC(=O)[C@H](CCCNC(=N)N)NC(=O)[C@H](Cc2ccc(O)cc2)NC(=O)[C@H](C(C)C)NC(=O)[C@@H](NC(=O)[C@@H](NC(=O)[C@H](CC(N)=O)NC(=O)[C@H](Cc2c[nH]c3ccccc23)NC(=O)[C@H](C)NC(=O)[C@H](Cc2ccccc2)NC(=O)CNC(=O)COCCOCCN)C(C)C)CSSC[C@@H](C(=O)N[C@@H](Cc2c[nH]cn2)C(=O)N[C@@H](CCCNC(=N)N)C(=O)N[C@@H](CCCNC(=N)N)C(=O)N[C@@H](C)C(=O)N[C@@H](CC(N)=O)C(=O)O)NC(=O)[C@H](C(C)C)NC(=O)[C@H](CCCNC(=N)N)NC1=O` [N6-NH2-miniPEG] (H-[AEEA]GFAWNVCVYRNGVRVCHRRAN-OH; disulfide 8-17) yielded an MIC (E. coli ATCCO157) of 6.10 µM (≈ 16 µg/mL), an MIC (E. coli CVCC1515) of 6.1 µM (≈ 16 µg/mL) and an MIC (E. coli CVCC195) of 6.1 µM (≈ 16 µg/mL). The MIC (E. coli CVCC25922) was 3.05 µM (≈ 7.99 µg/mL), the MIC (P. aeruginosa CICC21630) was 24.42 µM (≈ 64 µg/mL) and the MIC (S. aureus ATCC25923) was greater than 48.84 µM. It also gave an MIC (S. aureus ATCC43300) of 48.84 µM (≈ 128 µg/mL), an MIC (S. aureus ATCC546) of 48.84 µM (≈ 128 µg/mL) and an MIC (S. enteritidis CVCC3377) of 6.10 µM (≈ 16 µg/mL). For the same compound, the MIC (S. hyicus NCTC10350) was greater than 48.84 µM, the MIC (S. typhimurium ATCC14028) was 6.10 µM (≈ 16 µg/mL) and the MIC (S. pullorum CVCC1789) was 6.10 µM (≈ 16 µg/mL). For the same compound, the MIC (S. pullorum CVCC1802) was 6.10 µM (≈ 16 µg/mL), the MIC (S. pullorum CVCC533) was 12.21 µM (≈ 32 µg/mL) and the MIC (C. albicans CMCC98001) was greater than 48.84 µM.
